Reference: patent publication US9624228B2, “Inhibitors of ERK and methods of use” (KURA ONCOLOGY, INC., priority 2013, dated 2017)

target: ERK2 enzyme (Homo sapiens (Human), UniProt P28482); test: Inhibition assay of ERK (Z'-LYTE kinase assay, Ser/Thr 3 peptide substrate); format: biochemical; conditions: In vitro ERK2 enzyme, 100 μM ATP
Procedure: The inhibition of ERK activity by the compounds disclosed herein was determined using the Z′-LYTE kinase assay kit (Life Technologies) with a Ser/Thr 3 peptide substrate (Life Technologies) according to manufacturers' instructions. […] The IC50 values for the compounds were determined with 3-fold serial dilutions in duplicate. […] The final DMSO concentration in the assay was 1%. Final reaction volume was 20 μL/well in 384-well plates. Kinase reactions were conducted or 1 hour followed by the assay development reaction (1 hour) in a 20 ul/well in a 384 well plate format.

Chain of ERK2 enzyme (P28482 whole entry): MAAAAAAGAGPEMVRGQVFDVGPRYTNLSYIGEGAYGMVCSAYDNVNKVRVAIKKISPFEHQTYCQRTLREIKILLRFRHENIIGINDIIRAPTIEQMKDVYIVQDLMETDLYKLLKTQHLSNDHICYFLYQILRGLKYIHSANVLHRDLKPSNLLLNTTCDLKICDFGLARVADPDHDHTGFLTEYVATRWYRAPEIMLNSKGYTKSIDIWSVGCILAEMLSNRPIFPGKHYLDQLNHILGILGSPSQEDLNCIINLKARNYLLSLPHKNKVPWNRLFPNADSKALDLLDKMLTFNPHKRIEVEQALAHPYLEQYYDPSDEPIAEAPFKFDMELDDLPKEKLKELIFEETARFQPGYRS

SMILES | IC50 [nM]
Cc1cc(-c2n[nH]c3cc4c(cc23)CN([C@H](C)c2ccc(C#N)cc2)C(=O)N4)ccn1 [Compound 23] | < 50
O=C1Nc2cc3[nH]nc(-c4ccc(F)cc4)c3cc2CN1Cc1ccc(F)c(Cl)c1 [Compound 40] | 50 to 250
Cc1cc(-c2n[nH]c3cc4c(cc23)CN(CCc2ccc(F)cc2)C(=O)N4)ccn1 [Compound 18] | < 50
Cc1ccc(CN2CCC[C@@H](N3Cc4cc5c(-c6ccnc(C)c6)n[nH]c5cc4NC3=O)C2)cn1 [Compound 131] | 50 to 250
COc1ncc(-c2n[nH]c3cc4c(cc23)CN(CCCN)C(=O)N4)cn1 [Compound 112] | < 50
Cc1cc(-c2n[nH]c3cc4c(cc23)CN(C2CCNCC2)C(=O)N4)ccn1 [Compound 34] | 50 to 250
O=C1Nc2cc3[nH]nc(-c4ccc(=O)[nH]c4)c3cc2CN1Cc1cccc(Cl)c1 [Compound 61] | < 50
COc1ncc(-c2n[nH]c3cc4c(cc23)CN(Cc2ccc(F)c(Cl)c2)C(=O)N4)cn1 [Compound 37] | < 50
Cc1cc(-c2n[nH]c3cc4c(cc23)CN([C@@H]2CCCN(C)C2)C(=O)N4)ccn1 [Compound 33] | < 50
N#Cc1ccc(-c2n[nH]c3cc4c(cc23)CN(Cc2cccc(Cl)c2)C(=O)N4)cc1 [Compound 94] | 50 to 250
O=C1Nc2cc3[nH]nc(Br)c3cc2CN1Cc1ccc(F)cc1 [Compound 29] | 250 to 1000
Cc1cc(-c2n[nH]c3cc4c(cc23)CN(Cc2ccc(F)c(Cl)c2)C(=O)N4)ccn1 [Compound 8] | < 50
Cc1cc(-c2n[nH]c3cc4c(cc23)CN([C@@H]2CCCN(CC3CC5CCC3C5)C2)C(=O)N4)ccn1 (stereo partly drawn) [Compound 142] | < 50
O=C1Nc2cc3[nH]nc(Br)c3cc2CN1Cc1cccc(Cl)c1 [Compound 25] | 250 to 1000
COc1ncccc1CN1Cc2cc3c(-c4ccnc(C)c4)n[nH]c3cc2NC1=O [Compound 9] | < 50
N#Cc1cccc(CN2Cc3cc4c(-c5ccnnc5)n[nH]c4cc3NC2=O)c1 [Compound 128] | < 50
Cc1cc(-c2n[nH]c3cc4c(cc23)CN([C@@H]2CCCN(CC3CCC3)C2)C(=O)N4)ccn1 [Compound 137] | 50 to 250
COc1ncc(-c2n[nH]c3cc4c(cc23)CN([C@@H]2CCCN(Cc3c(F)cccc3F)C2)C(=O)N4)cn1 [Compound 102] | < 50
COc1ccc(-c2n[nH]c3cc4c(cc23)CN(CCc2cccc(Cl)c2)C(=O)N4)cn1 [Compound 85] | < 50
Cc1cc(-c2n[nH]c3cc4c(cc23)CN([C@@H]2CCCOC2)C(=O)N4)ccn1 [Compound 49] | < 50
Cc1cc(-c2n[nH]c3cc4c(cc23)CN(Cc2cccc(Cl)c2)C(=O)N4)cc(C)n1 [Compound 77] | < 50
COc1ccc(-c2n[nH]c3cc4c(cc23)CN(Cc2ccc(F)cc2)C(=O)N4)cn1 [Compound 76] | < 50
Cc1cc(-c2n[nH]c3cc4c(cc23)CN(CCc2cccc(Cl)c2)C(=O)N4)ccn1 [Compound 50] | < 50
Cc1cc(-c2n[nH]c3cc4c(cc23)CN([C@@H]2CCCN(Cc3cc(C)no3)C2)C(=O)N4)ccn1 [Compound 139] | < 50
COc1ncccc1CN1CCC[C@@H](N2Cc3cc4c(-c5ccnc(C)c5)n[nH]c4cc3NC2=O)C1 [Compound 150] | < 50
Cc1cc(-c2n[nH]c3cc4c(cc23)CN([C@@H]2CCCN(CC3CCCC3)C2)C(=O)N4)ccn1 [Compound 138] | 50 to 250
Cc1cc(-c2n[nH]c3cc4c(cc23)CN([C@@H]2CCCN(CCC(C)(C)C)C2)C(=O)N4)ccn1 [Compound 136] | 50 to 250
COc1ncc(-c2n[nH]c3cc4c(cc23)CN(CCN)C(=O)N4)cn1 [Compound 113] | 50 to 250

The remaining lines, values ahead:

IC50 [nM] | SMILES
50 to 250 | Cc1cc(-c2n[nH]c3cc4c(cc23)CN([C@@H]2CCCN(Cc3cc(C(C)(C)C)no3)C2)C(=O)N4)ccn1 [Compound 186]
< 50 | Cc1cc(-c2n[nH]c3cc4c(cc23)CN([C@@H]2CCCN(Cc3cccc(Cl)c3)C2)C(=O)N4)ccn1 [Compound 156]
< 50 | Cc1cc(-c2n[nH]c3cc4c(cc23)CN([C@@H]2CCCN(Cc3cccc(F)c3F)C2)C(=O)N4)ccn1 [Compound 185]
< 50 | Cc1cc(-c2n[nH]c3cc4c(cc23)CN([C@@H]2CCCN(Cc3cc(F)cc(F)c3)C2)C(=O)N4)ccn1 [Compound 163]
< 50 | Cc1cc(-c2n[nH]c3cc4c(cc23)CN([C@@H]2CCCN(C(C)c3ccccc3)C2)C(=O)N4)ccn1 (stereo partly drawn) [Compound 154]
< 50 | Cc1cc(-c2n[nH]c3cc4c(cc23)CN([C@@H]2CCN(CCc3ccccc3)C2)C(=O)N4)ccn1 [Compound 153]
< 50 | COc1cccc(F)c1CN1CC[C@@H](N2Cc3cc4c(-c5ccnc(C)c5)n[nH]c4cc3NC2=O)C1 [Compound 162]
< 50 | Cc1cc(-c2n[nH]c3cc4c(cc23)CN([C@@H]2CCCN(CC(F)(F)F)C2)C(=O)N4)ccn1 [Compound 193]
< 50 | Cc1cc(-c2n[nH]c3cc4c(cc23)CN([C@@H]2CCCN(Cc3ccc(Cl)cc3)C2)C(=O)N4)ccn1 [Compound 159]

same assay, conditions: In vitro, ERK2 enzyme 0.47 ng/μL, 100 μM ATP

SMILES | IC50 [nM]
COc1ccc(-c2n[nH]c3cc4c(cc23)CN([C@@H]2CCCN(Cc3ccc(F)cc3F)C2)C(=O)N4)cn1 [Compound 273] | < 50
Cc1cc(-c2n[nH]c3cc4c(cc23)CN(C2CCOC(C)(C)C2)C(=O)N4)ccn1 (stereo not drawn) [Compound 219] | < 50
COc1cc(-c2n[nH]c3cc4c(cc23)CN([C@@H]2CN(CC(F)(F)F)C[C@H]2c2ccccc2)C(=O)N4)ccn1 [Compound 375] | 50 to 250
Cn1nccc1-c1n[nH]c2cc3c(cc12)CN([C@@H]1CCCN(Cc2ccccc2)C1)C(=O)N3 [Compound 261] | < 50
Cc1cc(-c2n[nH]c3cc4c(cc23)CN(CC2CCCN(Cc3ccccc3)C2)C(=O)N4)ccn1 (stereo not drawn) [Compound 208] | 50 to 250
Cc1cc(-c2n[nH]c3cc4c(cc23)CN([C@@H]2CN(CC(F)(F)F)C[C@H]2C2CC2)C(=O)N4)ccn1 (mixture of isomers) [Compound 319] | 50 to 250
Cc1cc(-c2n[nH]c3cc4c(cc23)CN(C(C)C2CCCC2)C(=O)N4)ccn1 (stereo not drawn) [Compound 294] | < 50
Cc1cc(-c2n[nH]c3cc4c(cc23)CN(Cc2ccccc2)C(=O)N4)cc(C)n1 [Compound 229] | < 50
Cc1cc(-c2n[nH]c3cc4[nH]c(=O)c(C(O)c5ccccc5)cc4cc23)ccn1 (stereo not drawn) [Compound 221] | < 50
Cc1cc(-c2n[nH]c3cc4c(cc23)CN([C@H]2CN(C)C[C@@H]2c2ccccc2)C(=O)N4)cc(C)n1 [Compound 307] | 50 to 250
Cc1cc(-c2n[nH]c3cc4c(cc23)CN(C2CCC(F)(F)CC2)C(=O)N4)ccn1 [Compound 224] | < 50
Cc1cc(-c2n[nH]c3cc4c(cc23)CN([C@@H]2CCCN(C(C)C(F)(F)F)C2)C(=O)N4)ccn1 (stereo partly drawn) [Compound 216] | < 50
Cc1cc(-c2n[nH]c3cc4c(cc23)CN([C@@H]2CN(CC(F)(F)F)C[C@H]2C(C)(C)C)C(=O)N4)ccn1 [Compound 329] | 250 to 1000
Cc1cc(-c2n[nH]c3cc4c(cc23)CN(Cc2cccs2)C(=O)N4)cc(C)n1 [Compound 227] | < 50
Cc1cc(-c2n[nH]c3cc4[nH]c(=O)c([C@@H](C)c5ccc(F)cc5)cc4cc23)ccn1 [Compound 287] | 50 to 250
Cc1cc(-c2n[nH]c3cc4c(cc23)CN(Cc2nc(C)cs2)C(=O)N4)ccn1 [Compound 246] | < 50

SMILES | IC50 [nM]
Cc1cc(-c2n[nH]c3cc4c(cc23)CN([C@@H]2CCCN(c3cccc(C)n3)C2)C(=O)N4)ccn1 [Compound 238] | 50 to 250
Cc1ccc(-c2n[nH]c3cc4c(cc23)CN([C@@H]2CCCN(Cc3ccccc3)C2)C(=O)N4)cn1 [Compound 275] | < 50
Cc1cc(-c2n[nH]c3cc4c(cc23)CN([C@@H]2CN(CC(F)(F)F)C[C@H]2c2ccccc2F)C(=O)N4)ccn1 (racemic) [Compound 311] | 50 to 250
Cc1cc(-c2n[nH]c3cc4c(cc23)CN(Cc2ccc(F)c(Cl)c2)C(=O)N4)cc(C)n1 [Compound 226] | < 50
Cc1cc(-c2n[nH]c3cc4c(cc23)CN([C@@H]2CN(C)C[C@H]2C(C)C)C(=O)N4)ccn1 (mixture of isomers) [Compound 327] | 250 to 1000
CC(c1ccccc1)c1cc2cc3c(-c4ccnnc4)n[nH]c3cc2[nH]c1=O (stereo not drawn) [Compound 323] | < 50
Cc1cc(-c2n[nH]c3cc4c(cc23)CN([C@H]2CCCN(CC(F)(F)F)C2)C(=O)N4)ccn1 [Compound 309] | 50 to 250
CCN1C[C@@H](N2Cc3cc4c(-c5ccnc(C)c5)n[nH]c4cc3NC2=O)[C@H](c2ccccc2)C1 (racemic) [Compound 278] | < 50
CN(C)CCN1CCN(c2n[nH]c3cc4c(cc23)CN(Cc2ccc(F)c(Cl)c2)C(=O)N4)CC1 [Compound 260] | 250 to 1000
Cc1cc(-c2n[nH]c3cc4[nH]c(=O)c(C(C)c5ccc(F)cc5F)cc4cc23)ccn1 (stereo not drawn) [Compound 312] | 50 to 250
Cc1cc(-c2n[nH]c3cc4c(cc23)CN(CC2CC2)C(=O)N4)ccn1 [Compound 258] | < 50
O=C1Nc2cc3[nH]nc(-c4ccnnc4)c3cc2CN1[C@@H]1CN(CC(F)(F)F)C[C@H]1c1ccccc1 [Compound 340] | < 50
Cn1cc(-c2n[nH]c3cc4c(cc23)CN([C@@H]2CN(CC(F)(F)F)C[C@H]2c2ccccc2)C(=O)N4)ccc1=O [Compound 346] | < 50
Cc1cc(-c2n[nH]c3cc4c(cc23)CN(Cc2ccccc2C(F)(F)F)C(=O)N4)ccn1 [Compound 218] | < 50
Cc1cc(-c2n[nH]c3cc4c(cc23)CN([C@@H]2CN(CCO)C[C@H]2c2ccccc2)C(=O)N4)ccn1 (mixture of isomers) [Compound 376] | < 50
Cc1cc(-c2n[nH]c3cc4c(cc23)CN([C@H]2CN(Cc3ccccc3)CC(F)(F)C2)C(=O)N4)ccn1 [Compound 264] | < 50
